In ChEMBL document CHEMBL1909046, “DrugMatrix in vitro pharmacology data”:

Experiments:
[1] = target: T1, Nitric oxide synthase, inducible (Mus musculus, UniProt P29477); design: species or system Escherichia coli;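 note: inhibition of iNOS enzyme activity measured with L-arginine as substrate; in other assays of this panel Not Active means under 50% inhibition at 10 µM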
T1 sequence (P29477 whole entry): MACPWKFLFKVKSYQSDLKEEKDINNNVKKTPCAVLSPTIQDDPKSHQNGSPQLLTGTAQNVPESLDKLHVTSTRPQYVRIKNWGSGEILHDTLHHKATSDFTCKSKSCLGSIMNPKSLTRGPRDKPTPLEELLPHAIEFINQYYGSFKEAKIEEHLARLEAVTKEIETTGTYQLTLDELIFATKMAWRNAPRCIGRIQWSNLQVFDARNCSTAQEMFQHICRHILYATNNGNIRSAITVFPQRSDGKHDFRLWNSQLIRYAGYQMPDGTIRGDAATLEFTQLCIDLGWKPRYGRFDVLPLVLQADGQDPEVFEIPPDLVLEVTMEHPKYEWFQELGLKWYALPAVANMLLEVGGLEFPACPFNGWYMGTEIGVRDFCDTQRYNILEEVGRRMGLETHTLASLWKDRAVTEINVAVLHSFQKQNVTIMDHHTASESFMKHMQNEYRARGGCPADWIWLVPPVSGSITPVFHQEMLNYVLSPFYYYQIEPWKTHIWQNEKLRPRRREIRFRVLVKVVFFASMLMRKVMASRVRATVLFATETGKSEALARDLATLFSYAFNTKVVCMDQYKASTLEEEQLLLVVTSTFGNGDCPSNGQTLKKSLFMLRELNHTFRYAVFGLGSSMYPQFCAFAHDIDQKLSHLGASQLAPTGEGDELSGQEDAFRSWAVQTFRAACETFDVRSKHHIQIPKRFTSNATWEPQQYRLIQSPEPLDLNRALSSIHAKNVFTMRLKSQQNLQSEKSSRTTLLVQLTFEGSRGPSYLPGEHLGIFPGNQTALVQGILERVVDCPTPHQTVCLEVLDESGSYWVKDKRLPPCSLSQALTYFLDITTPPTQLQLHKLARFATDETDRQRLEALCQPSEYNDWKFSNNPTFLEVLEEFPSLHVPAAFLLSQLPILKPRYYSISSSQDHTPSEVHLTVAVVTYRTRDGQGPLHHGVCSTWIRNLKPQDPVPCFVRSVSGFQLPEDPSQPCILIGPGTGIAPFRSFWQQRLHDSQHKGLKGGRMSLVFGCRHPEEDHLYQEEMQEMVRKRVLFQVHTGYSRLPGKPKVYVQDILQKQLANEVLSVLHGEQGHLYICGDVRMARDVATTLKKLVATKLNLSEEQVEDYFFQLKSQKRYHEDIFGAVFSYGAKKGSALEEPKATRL

[2] = target: Epidermal growth factor receptor (Homo sapiens, UniProt P00533); assay: DRUGMATRIX: Protein Tyrosine Kinase, EGF Receptor enzyme inhibition (substrate: Poly(Glu:Tyr)); format: cell-based, Insect cells; conditions: insect cells; Not Active = under 50% inhibition at 10 µM
Cytochrome P450 2D6 = Cytochrome P450 2D6 (Homo sapiens, UniProt P10635); conditions: bti-tn-5b1-4; note: in other assays of this panel Not Active means under 50% inhibition at 10 µM
[3] = target: Tyrosine-protein kinase Fyn (Homo sapiens, UniProt P06241); assay: biochemical; format: cell-based, Insect cells; conditions: insect cells;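 note: enzymatic inhibition of Fyn kinase activity measured with Poly(Glu:Tyr) as the phosphorylation substrate; in other assays of this panel Not Active means under 50% inhibition at 10 µM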
[4] = target: Protein phosphatase 3 catalytic subunit alpha (Homo sapiens, UniProt Q08209); design: species or system Escherichia coli;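 note: inhibition of calcineurin (PP2B) enzyme activity, measured with DiFMUP as the substrate; in other assays of this panel Not Active means under 50% inhibition at 10 µM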
Cytochrome P450 2A6 = target: T2, Cytochrome P450 2A6 (Homo sapiens, UniProt P11509); conditions: bti-tn-5b1-4; note: in other assays of this panel Not Active means under 50% inhibition at 10 µM
T2 sequence (P11509 whole entry): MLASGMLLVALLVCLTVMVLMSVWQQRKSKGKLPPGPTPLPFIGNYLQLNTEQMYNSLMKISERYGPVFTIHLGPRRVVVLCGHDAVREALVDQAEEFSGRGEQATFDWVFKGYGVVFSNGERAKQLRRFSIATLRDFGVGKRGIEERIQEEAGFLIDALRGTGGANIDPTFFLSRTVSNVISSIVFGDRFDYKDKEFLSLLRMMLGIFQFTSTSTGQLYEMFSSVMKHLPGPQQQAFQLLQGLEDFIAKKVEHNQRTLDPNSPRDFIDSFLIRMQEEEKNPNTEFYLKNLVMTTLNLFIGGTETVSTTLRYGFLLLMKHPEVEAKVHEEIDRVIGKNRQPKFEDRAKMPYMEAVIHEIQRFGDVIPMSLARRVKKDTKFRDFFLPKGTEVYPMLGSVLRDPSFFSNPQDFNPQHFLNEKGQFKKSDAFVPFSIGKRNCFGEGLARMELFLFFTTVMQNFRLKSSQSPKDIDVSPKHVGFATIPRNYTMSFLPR

[5] = target: Beta-2 adrenergic receptor (Homo sapiens, UniProt P07550); assay: DRUGMATRIX: Adrenergic beta2 radioligand binding (ligand: [3H] CGP-12177); format: cell membranes, CHO, Membrane; conditions: cho; Not Active = under 50% inhibition at 10 µM
[6] = target: Protein kinase C alpha type (Homo sapiens, UniProt P17252); format: cell-based; conditions: sf9

Tyrosine-protein kinase Fyn, sequence (P06241 whole entry): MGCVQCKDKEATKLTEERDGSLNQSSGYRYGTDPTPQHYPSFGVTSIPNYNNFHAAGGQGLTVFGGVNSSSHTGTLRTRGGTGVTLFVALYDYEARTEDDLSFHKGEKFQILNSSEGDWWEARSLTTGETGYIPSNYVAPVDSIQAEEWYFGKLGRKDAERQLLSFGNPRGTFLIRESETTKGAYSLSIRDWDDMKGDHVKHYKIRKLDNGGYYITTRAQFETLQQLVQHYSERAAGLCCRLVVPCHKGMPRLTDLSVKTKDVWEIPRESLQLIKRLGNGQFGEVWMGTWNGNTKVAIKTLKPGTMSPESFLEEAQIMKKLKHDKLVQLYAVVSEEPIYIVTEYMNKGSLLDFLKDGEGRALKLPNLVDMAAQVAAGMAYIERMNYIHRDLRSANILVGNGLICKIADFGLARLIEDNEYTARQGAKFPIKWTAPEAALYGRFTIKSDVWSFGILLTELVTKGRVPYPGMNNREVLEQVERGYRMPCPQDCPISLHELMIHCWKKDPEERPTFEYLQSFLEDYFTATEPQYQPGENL
Cytochrome P450 2D6, sequence (P10635 whole entry): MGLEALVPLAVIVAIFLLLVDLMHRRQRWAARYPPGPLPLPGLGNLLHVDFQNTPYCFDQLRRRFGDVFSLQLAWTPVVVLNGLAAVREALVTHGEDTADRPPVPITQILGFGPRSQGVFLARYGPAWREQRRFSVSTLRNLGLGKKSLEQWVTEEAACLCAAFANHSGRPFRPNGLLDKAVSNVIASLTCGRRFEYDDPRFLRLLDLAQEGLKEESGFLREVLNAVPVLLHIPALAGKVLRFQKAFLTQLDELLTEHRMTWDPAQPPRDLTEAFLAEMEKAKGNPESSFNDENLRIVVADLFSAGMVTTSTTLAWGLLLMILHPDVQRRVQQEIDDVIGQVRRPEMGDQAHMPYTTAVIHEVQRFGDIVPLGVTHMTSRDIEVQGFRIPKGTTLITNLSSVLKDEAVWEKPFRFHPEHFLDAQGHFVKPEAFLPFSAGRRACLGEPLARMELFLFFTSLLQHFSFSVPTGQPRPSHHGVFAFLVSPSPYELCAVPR

CCOC(=O)[C@H](CCc1ccccc1)N[C@@H](C)C(=O)N1CCC[C@H]1C(=O)O
Not Active: IC50 [1] | IC50 [2] | IC50 (Cytochrome P450 2D6) | Ki (Cytochrome P450 2D6) | IC50 [3] | IC50 [4] | IC50 (Cytochrome P450 2A6) | Ki (Cytochrome P450 2A6) | IC50 [5] | IC50 [6]

POLYVINYL ALCOHOL
Not Active: IC50 [1] | Ki [1] | IC50 [2] | Ki [2] | IC50 (Cytochrome P450 2D6) | Ki (Cytochrome P450 2D6) | IC50 [3] | Ki [3] | IC50 [4] | Ki [4] | IC50 (Cytochrome P450 2A6) | Ki (Cytochrome P450 2A6) | IC50 [5] | Ki [5] | IC50 [6] | Ki [6]

CCC[C@@H]1C[C@@H](C(=O)N[C@@H]([C@H]2O[C@H](SC)[C@H](O)[C@@H](O)[C@H]2O)[C@H](C)Cl)N(C)C1 [CLINDAMYCIN]
Not Active: IC50 [1] | IC50 [2] | IC50 [3] | IC50 [4] | IC50 [5] | IC50 [6]

CN(Cc1cnc2nc(N)nc(N)c2n1)c1ccc(C(=O)N[C@@H](CCC(=O)O)C(=O)O)cc1 [METHOTREXATE]
Not Active: IC50 [1] | IC50 [2] | IC50 (Cytochrome P450 2D6) | Ki (Cytochrome P450 2D6) | IC50 [3] | IC50 [4] | IC50 (Cytochrome P450 2A6) | Ki (Cytochrome P450 2A6) | IC50 [5] | IC50 [6]

CO[C@@]1(NC(=O)CSCC#N)C(=O)N2C(C(=O)O)=C(CSc3nnnn3C)CS[C@@H]21 [CEFMETAZOLE]
Not Active: IC50 [1] | IC50 [2] | IC50 (Cytochrome P450 2D6) | Ki (Cytochrome P450 2D6) | IC50 [3] | IC50 [4] | IC50 (Cytochrome P450 2A6) | Ki (Cytochrome P450 2A6) | IC50 [5] | IC50 [6]

C[C@@H]1CC[C@H]2[C@@H](C)C(=O)O[C@@H]3O[C@@]4(C)CC[C@@H]1[C@]32OO4 [ARTEMISININ]
Not Active: IC50 [1] | IC50 [2] | IC50 [3] | IC50 [4] | IC50 [5] | IC50 [6]

CC(C(=O)O)c1ccc(CC2CCCC2=O)cc1 (stereo not given) [LOXOPROFEN]
Not Active: IC50 [1] | IC50 [2] | IC50 (Cytochrome P450 2D6) | Ki (Cytochrome P450 2D6) | IC50 [3] | IC50 [4] | IC50 (Cytochrome P450 2A6) | Ki (Cytochrome P450 2A6) | IC50 [5] | IC50 [6]

CCCCCC[C@H]1C(=O)O[C@H](C)[C@H](NC(=O)c2cccc(NC=O)c2O)C(=O)O[C@@H](C)[C@@H]1OC(=O)CC(C)C [ANTIMYCIN A]
Not Active: IC50 [1] | IC50 [2] | IC50 (Cytochrome P450 2D6) | Ki (Cytochrome P450 2D6) | IC50 [3] | IC50 [4] | IC50 (Cytochrome P450 2A6) | Ki (Cytochrome P450 2A6) | IC50 [5] | IC50 [6]

C#C[C@]1(O)CC[C@H]2[C@@H]3CCc4cc(O)ccc4[C@H]3CC[C@@]21C [ETHINYL ESTRADIOL]
Not Active: IC50 [1] | IC50 [2] | IC50 (Cytochrome P450 2D6) | Ki (Cytochrome P450 2D6) | IC50 [3] | IC50 [4] | IC50 (Cytochrome P450 2A6) | Ki (Cytochrome P450 2A6) | IC50 [5] | IC50 [6]

CC[C@H]1OC(=O)[C@H](C)[C@@H](O[C@H]2C[C@@](C)(OC)[C@@H](O)[C@H](C)O2)[C@H](C)[C@@H](O[C@@H]2O[C@H](C)C[C@H](N(C)C)[C@H]2O)[C@](C)(O)C[C@@H](C)CN(C)[C@H](C)[C@@H](O)[C@]1(C)O [AZITHROMYCIN]
Not Active: IC50 [1] | IC50 [2] | IC50 (Cytochrome P450 2D6) | Ki (Cytochrome P450 2D6) | IC50 [3] | IC50 [4] | IC50 (Cytochrome P450 2A6) | Ki (Cytochrome P450 2A6) | IC50 [5] | IC50 [6]

COc1ccc2cc(CCC(C)=O)ccc2c1 [NABUMETONE]
Not Active: IC50 [1] | IC50 [2] | IC50 (Cytochrome P450 2D6) | Ki (Cytochrome P450 2D6) | IC50 [3] | IC50 [4] | IC50 (Cytochrome P450 2A6) | Ki (Cytochrome P450 2A6) | IC50 [5] | IC50 [6]

CCCCC1C(=O)N(c2ccccc2)N(c2ccccc2)C1=O [PHENYLBUTAZONE]
Not Active: IC50 [1] | IC50 [2] | IC50 (Cytochrome P450 2D6) | Ki (Cytochrome P450 2D6) | IC50 [3] | IC50 [4] | IC50 (Cytochrome P450 2A6) | Ki (Cytochrome P450 2A6) | IC50 [5] | IC50 [6]

C=C1/C(=C\C=C2/CCC[C@]3(C)[C@@H]([C@H](C)CCCC(C)C)CC[C@@H]23)C[C@@H](O)C[C@@H]1O [ALFACALCIDOL]
Not Active: IC50 [1] | IC50 [2] | IC50 (Cytochrome P450 2D6) | Ki (Cytochrome P450 2D6) | IC50 [3] | IC50 [4] | IC50 (Cytochrome P450 2A6) | Ki (Cytochrome P450 2A6) | IC50 [5] | IC50 [6]

NC(=O)N1c2ccccc2C=Cc2ccccc21 [CARBAMAZEPINE]
Not Active: IC50 [1] | IC50 [2] | IC50 (Cytochrome P450 2D6) | Ki (Cytochrome P450 2D6) | IC50 [3] | IC50 [4] | IC50 (Cytochrome P450 2A6) | Ki (Cytochrome P450 2A6) | IC50 [5] | IC50 [6]

COc1ccccc1OCC(O)CO (stereo not given) [GUAIFENESIN]
Not Active: IC50 [1] | IC50 [2] | IC50 [3] | IC50 [4] | IC50 [5] | IC50 [6]

C/C=C\c1ccc(O)c(OC)c1 [ISOEUGENOL]
Not Active: IC50 [1] | IC50 [2] | IC50 [3] | IC50 [4] | IC50 [5] | IC50 [6]

CCOC(=O)C1=C(C)NC(C)=C(C(=O)OC)C1c1cccc(Cl)c1Cl (stereo not given) [FELODIPINE]
Not Active: IC50 [1] | IC50 [2] | IC50 [3] | IC50 [4] | IC50 (Cytochrome P450 2A6) | Ki (Cytochrome P450 2A6) | IC50 [5] | IC50 [6]

Cc1cn[nH]c1 [FOMEPIZOLE]
Not Active: IC50 [1] | IC50 [2] | IC50 [3] | IC50 [4] | IC50 [5] | IC50 [6]

CN1C(=O)CN=C(c2ccccc2)c2cc(Cl)ccc21 [DIAZEPAM]
Not Active: IC50 [1] | IC50 [2] | IC50 [3] | IC50 [4] | IC50 (Cytochrome P450 2A6) | Ki (Cytochrome P450 2A6) | IC50 [5] | IC50 [6]

N[C@@H](Cc1ccc(F)cc1)C(=O)O
Not Active: IC50 [1] | IC50 [2] | IC50 [3] | IC50 [4] | IC50 [5] | IC50 [6]

Cc1cnc(C(=O)NCCc2ccc(S(=O)(=O)NC(=O)NC3CCCCC3)cc2)cn1 [GLIPIZIDE]
Not Active: IC50 [2] | IC50 [3] | IC50 [5] | IC50 [6]

OCCN1CCN(CCCN2c3ccccc3Sc3ccc(Cl)cc32)CC1 [PERPHENAZINE]
Not Active: IC50 [1] | IC50 [2] | IC50 [3] | IC50 [4] | IC50 (Cytochrome P450 2A6) | Ki (Cytochrome P450 2A6) | IC50 [5] | IC50 [6]
